# Reference: patent US20050042751A1, “Generation and use of new types of dendritic cells” (priority 2001, published 2005)
# How the values were obtained:
# Assay type in all cases: cell-based, human
# monocyte-derived DC [1] = experiment: IL-12 production by DC in DC-γδ T cell cocultures (ELISA)
# Procedure: FIG. 3: γδ T cells induce IL-12 production by DC. Monocyte-derived DC were cocultured alone or in the presence of BrHpp only or cocultured with unstimulated or BrHpp-activated γδ T in absence or presence of either anti-TNF-α, anti-IFN-γ neutralizing mAbs or both. After 24 h of culture, supernatants were assayed for IL12-p40 and p70 levels by ELISA. Results were expressed as mean±SEM of 6 independent experiments. • * p<0.05 compared to DC cultured in medium alone or containing BrHpp • ** p<0.05 compared to DC stimulated with BrHPP-activated γδ T cells in the absence of mAb.
# (§1) Cell culture conditions. γδ T cells (7.5 10^5 cells/500 μl) were cultured for 24 h in flat-bottomed 24-well plates in culture medium supplemented or not with BrHpp (200 nM). Autologous DC (10^6 cells/500 μl) were added to γδ T cell cultures for another 24 h and analyzed for the expression of surface markers and for their ability to release cytokines. In parallel, DC (10^6 cells/ml) were cultured for 24 h in 24-well plates either in medium alone, or in presence of BrHpp (100 nM). In some experiments, anti-TNF-α (20 μg/ml) or anti-IFN-γ (15 μg/ml) neutralizing monoclonal antibody (mAb) or their isotypic control used at similar concentration (Biosource Fleurus, Belgium) were added to DC-γδ T cell cocultures. In parallel, DC and γδ T cells were cocultured in a transwell culture system (Costar, Belgium).
# (§2) Determination of cytokine levels. TNF-α, IL-12 p-40 and IFN-γ levels in culture supernatants were determined by ELISA kits from Biosource. IL-12 p70 levels were measured using the Endogen Elisa kit (Endogen, Belgium).
# monocyte-derived DC [2] = experiment: Phenotypic changes of DC upon coculture with γδ T cells (flow cytometry)
# Procedure: DC cultures were cultured for 24 alone, in the presence of BrHpp (200 nM) only, or with γδ T cells activated by BrHpp as described in example 1. Neutralizing anti-TNF or anti-IFNγ Ab was added at a concentration of 20 and 15 μg/ml, respectively. The expression of HLA-DR, CD86, and CD83 on DC was measured by flow cytometry and expressed as means+/−SEM of mean fluorescence intensity in five independent experiments on different healty donors. • ^1 p<0.05 compared to DC cultured alone or with BrHpp only. • ^2 p<0.05 compared to DC cultured with activated γδ T cells in absence of mAb.
# Purification of γδ T cells and DC generation. Peripheral blood mononuclear cells (PBMC) from healthy volunteers were isolated by density centrifugation of heparinized blood on Lymphoprep (Nycomed, Oslo, Norway), washed with HBSS, resuspended in culture medium and allowed to adhere In culture flasks for 2 h at 37° C. Non-adherent cells were removed and adherent monocytes were cultured during 6 days in presence of 500 U/ml granulocyte macrophage colony-stimulating factor (GM-CSF) (Leucomax, Schering-Plough Kenilworth, N.J.) and 800 U/ml of IL-4 (Cellgenix, Freiburg, Germany). The resulting cell preparation routinely contained >90% DC as assessed by morphology and FACS analysis.
# as §1
# Immunophenotyping by flow cytometry. Monocyte-derived DC were stained using PE-labeled specific mAb HLA-DR, CD86, CD83 (Beckton-Dickinson, Mountain view, CA). FITC-conjugated anti-TCR γδ mAb (Becton-Dickinson, San Jose, Calif.) was used to assess γδ T cell purity and to exclude them in flow cytometry analysis of DC in DC-γδ T cell cocultures. Briefly, 5×10^5 cells were incubated with the relevant mAbs or their isotype-matched controls for 20 min at 4° C., washed and fluorescence intensity was analyzed using a FACS-Calibur (Becton-Dickinson).
# γδ T cells = experiment: TNF-α and IFN-γ production by γδ T cells (ELISA)
# Procedure: γδ T cells (7.5 10^5 cells/500 μl) were either cultured in medium alone or stimulated with BrHpp (200 nM). After 48 h, culture supernatants were assayed by ELISA for TNF-α and IFN-γ levels.
# For γδ T cell isolation, cells expressing γ-δ receptors on their membrane were positively selected using immunomagnetic depletion (Miltenyi Sanvertech, Belgium). Briefly, non-adherent PBMC containing 2 to 5% of γδ T cells were incubated with biotin-conjugated anti-γδ T cell receptor (TCR) antibodies for 15 min at 4° C., washed three times, and then incubated with immunomagnetic beads coated with streptavidin.
# Cell culture conditions. γδ T cells (7.5 10^5 cells/500 μl) were cultured for 24 h in flat-bottomed 24-well plates in culture medium supplemented or not with BrHpp (200 nM). Autologous DC (10^6 cells/500 μl) were added to γδ T cell cultures for another 24 h and analyzed for the expression of surface markers and for their ability to release cytokines. In parallel, DC (10^6 cells/ml) were cultured for 24 h in 24-well plates either in medium alone, or in presence of BrHpp (100 nM). […] In parallel, DC and γδ T cells were cocultured in a transwell culture system (Costar, Belgium).
# as §2
# [3] = DC cultured 24 h with BrHpp (200 nM) only, mean+/-SEM, 5 experiments
# [4] = γδ T cells 7.5 10^5 cells/500 μl, BrHpp 200 nM, 48 h, culture supernatant, mean±SEM of 13 experiments
compound,measurement,setting,value
"CC(O)(CBr)CCOP(=O)(O)OP(=O)(O)O (centres unmarked) [BrHpp, bromohydrin pyrophosphate]",effect on IL-12 production by DC,monocyte-derived DC [1]; DC cultured in absence of γδ T cells,no effect
same,induction of IL-12 (p70) synthesis,monocyte-derived DC [1]; DC-γδ T cell coculture in the presence of BrHpp,detected
same,increase in IL-12 (p40) levels,monocyte-derived DC [1]; DC-γδ T cell coculture in the presence of BrHpp versus without BrHpp,3 fold
same,CD83 expression on DC (mean fluorescence intensity),monocyte-derived DC [2]; [3],69 +/− 14
same,CD86 expression on DC (mean fluorescence intensity),monocyte-derived DC [2]; [3],308 +/− 205
same,HLA DR expression on DC (mean fluorescence intensity),monocyte-derived DC [2]; [3],610 +/− 354
same,"effect of preactivation of γδT cells on upregulation of HLA-DR, CD86 and CD83 on DC",monocyte-derived DC [2]; γδT cells preactivated with BrHpp versus not preactivated,did not result in a further increase
same,effect on IFN-γ secretion by γδ T cells,γδ T cells; text statement on table 1,induced
same,effect on basal production of TNF-α by γδ T cells,γδ T cells; text statement on table 1,further increased
same,IFN-γ,γδ T cells; [4],452 ± 76^1 pg/ml
same,TNF-α,γδ T cells; [4],17406 ± 1290^1 pg/ml
